In ChEMBL document CHEMBL1212763, “Pharmacokinetics and safety of S/GSK1349572, a next-generation HIV integrase inhibitor, in healthy volunteers” (Antimicrob Agents Chemother, 2010):

Tests used:
[1] = Tmax in healthy human at 5 mg administered as single dose suspension; assay type: ADME, organism-based; conditions: in vivo
[2] = Tmax in healthy human at 10 mg administered as single dose suspension; assay type: ADME, organism-based; conditions: in vivo
[3] = AUC (0-t) in healthy human at 5 mg administered as single dose suspension; assay type: ADME, organism-based; conditions: plasma
[4] = Drug level at 24 hrs in healthy human at 5 mg administered as single dose suspension; assay type: ADME, organism-based; conditions: in vivo, read-out: Drug uptake
[5] = Tmax in healthy human at 2 mg administered as single dose suspension; assay type: ADME, organism-based; conditions: in vivo
[6] = Tmax in healthy human at 50 mg administered as single dose suspension; assay type: ADME, organism-based; conditions: in vivo
Homo sapiens [7] = assay: Toxicity in healthy human assessed as incidence of adverse events at 2 to 100 mg administered as single dose suspension; assay type: organism-based; conditions: in vivo
[8] = Drug level at 24 hrs in healthy human at 100 mg administered as single dose suspension; assay type: ADME, organism-based; conditions: in vivo, read-out: Drug uptake
[9] = Drug level at 24 hrs in healthy human at 25 mg administered as single dose suspension; assay type: ADME, organism-based; conditions: in vivo, read-out: Drug uptake
Homo sapiens [10] = assay: Toxicity in healthy human assessed as incidence of drug related incidence of headache at 25 mg, qd for 10 days administered as suspension measured after last dose; assay type: organism-based; conditions: in vivo, 240 h
[11] = Half life in healthy human at 5 mg administered as single dose suspension; assay type: ADME, organism-based; conditions: in vivo
Homo sapiens [12] = assay: Toxicity in healthy human assessed as incidence of drug related incidence of somnolence at 10 mg administered as single dose suspension; assay type: organism-based; conditions: in vivo
[13] = Cmax in healthy human at 10 mg, qd for 10 days administered as suspension measured after last dose; assay type: ADME, organism-based; design: dose 10 mg; conditions: in vivo
[14] = AUC (0-tau) in healthy human at 50 mg, qd for 10 days administered as suspension measured after last dose; assay type: ADME, organism-based; conditions: plasma
Homo sapiens [15] = assay: Toxicity in healthy human assessed as incidence of drug related incidence of pharyngolaryngeal pain at 10 mg, qd for 10 days administered as suspension measured after last dose; assay type: organism-based; conditions: in vivo, 240 h
[16] = Apparent oral clearance in healthy human at 25 mg administered as single dose suspension; assay type: ADME, organism-based; conditions: in vivo
[17] = AUC (0-t) in healthy human at 50 mg administered as single dose suspension; assay type: ADME, organism-based; conditions: plasma
[18] = Cmax in healthy human at 50 mg administered as single dose suspension; assay type: ADME, organism-based; design: dose 50 mg; conditions: in vivo
[19] = Drug level in healthy human at 50 mg, qd for 10 days administered as suspension measured after last dose; assay type: ADME, organism-based; conditions: in vivo, read-out: Drug uptake
[20] = AUC (0-tau) in healthy human at 10 mg, qd for 10 days administered as suspension measured after last dose; assay type: ADME, organism-based; conditions: plasma
Homo sapiens [21] = assay: Toxicity in healthy human assessed as incidence of drug related incidence of pharyngolaryngeal pain at 25 mg, qd for 10 days administered as suspension measured after last dose coadministered with 3 mg CYP3A4 probe midazolam; assay type: organism-based; conditions: in vivo, 240 h
[22] = Half life in healthy human at 100 mg administered as single dose suspension; assay type: ADME, organism-based; conditions: in vivo
Homo sapiens [23] = assay: Toxicity in healthy human assessed as incidence of drug related incidence of pharyngolaryngeal pain at 50 mg, qd for 10 days administered as suspension measured after last dose; assay type: organism-based; conditions: in vivo, 240 h
[24] = AUC (0-t) in healthy human at 100 mg administered as single dose suspension; assay type: ADME, organism-based; conditions: plasma
[25] = AUC (0-tau) in healthy human at 25 mg, qd for 10 days administered as suspension measured after last dose; assay type: ADME, organism-based; conditions: plasma
[26] = Tmax in healthy human at 10 mg, qd for 10 days administered as suspension measured after last dose; assay type: ADME, organism-based; conditions: in vivo
[27] = AUC (0-t) in healthy human at 2 mg administered as single dose suspension; assay type: ADME, organism-based; conditions: plasma
Homo sapiens [28] = assay: Toxicity in healthy human assessed as incidence of drug related incidence of somnolence at 2 mg administered as single dose suspension; assay type: organism-based; conditions: in vivo
Homo sapiens [29] = assay: Toxicity in healthy human assessed as incidence of drug related incidence of somnolence at 50 mg administered as single dose suspension; assay type: organism-based; conditions: in vivo
[30] = Cmax in healthy human at 25 mg, qd for 10 days administered as suspension measured after last dose; assay type: ADME, organism-based; design: dose 25 mg; conditions: in vivo
[31] = AUC (0-infinity) in healthy human at 50 mg administered as single dose suspension; assay type: ADME, organism-based; design: dose 50 mg, time infinity; conditions: plasma
[32] = AUC (0-t) in healthy human at 10 mg administered as single dose suspension; assay type: ADME, organism-based; conditions: plasma
[33] = AUC (0-infinity) in healthy human at 2 mg administered as single dose suspension; assay type: ADME, organism-based; design: dose 2 mg, time infinity; conditions: plasma
Homo sapiens [34] = assay: Toxicity in healthy human assessed as incidence of drug related incidence of head ache at 10 mg administered as single dose suspension; assay type: organism-based; conditions: in vivo
[35] = AUC (0-t) in healthy human at 25 mg administered as single dose suspension; assay type: ADME, organism-based; conditions: plasma
[36] = Tmax in healthy human at 25 mg administered as single dose suspension; assay type: ADME, organism-based; conditions: in vivo
Homo sapiens [37] = assay: Toxicity in healthy human assessed as incidence of drug related incidence of headache at 10 mg, qd for 10 days administered as suspension measured after last dose; assay type: organism-based; conditions: in vivo, 240 h

Q: For C[C@@H]1CCO[C@H]2Cn3cc(C(=O)NCc4ccc(F)cc4F)c(=O)c([O-])c3C(=O)N12.[Na+] [DOLUTEGRAVIR SODIUM], which Tmax [1] is on record?
A: 30 min

Q: And the Tmax [2]?
A: 37.8 min

Q: What about the AUC(0-t) [3] of the same compound?
A: 8540 ng·h/mL

Q: And the concentration at 24 h [4]?
A: 126 ng/mL

Q: What about the Tmax [5] of the same compound?
A: 37.8 min

Q: What about the Tmax [6] of the same compound?
A: 75 min

Q: And the Activity (Homo sapiens [7])?
A: Non-toxic

Q: And the concentration at 24 h [8]?
A: 1800 ng/mL

Q: And the concentration at 24 h [9]?
A: 469 ng/mL

Q: What about the Activity (Homo sapiens [10]) of the same compound?
A: 0%

Q: And the half-life [11]?
A: 858 min

Q: And the Activity (Homo sapiens [12])?
A: 0%

Q: What about the Cmax [13] of the same compound?
A: 1470 ng/mL

Q: What about the AUC tau at 240 h [14] of the same compound?
A: 76800 ng·h/mL

Q: What about the Activity (Homo sapiens [15]) of the same compound?
A: 0%

Q: And the CL/F [16]?
A: 11.8 mL/min

Q: What about the AUC(0-t) [17] of the same compound?
A: 70800 ng·h/mL

Q: And the Cmax [18]?
A: 4560 ng/mL

Q: And the concentration at 240 h [19]?
A: 1640 ng/mL

Q: What about the AUC tau at 240 h [20] of the same compound?
A: 16700 ng·h/mL

Q: And the Activity (Homo sapiens [21])?
A: 0%

Q: What about the half-life [22] of the same compound?
A: 882 min

Q: And the Activity (Homo sapiens [23])?
A: 11%

Q: What about the AUC(0-t) [24] of the same compound?
A: 131000 ng·h/mL

Q: And the AUC tau at 240 h [25]?
A: 38400 ng·h/mL

Q: And the Tmax [26]?
A: 30 min

Q: What about the AUC(0-t) [27] of the same compound?
A: 2630 ng·h/mL

Q: And the Activity (Homo sapiens [28])?
A: 0%

Q: What about the Activity (Homo sapiens [29]) of the same compound?
A: 33%

Q: What about the Cmax [30] of the same compound?
A: 3090 ng/mL

Q: And the AUC(0-inf) [31]?
A: 73200 ng·h/mL

Q: And the AUC(0-t) [32]?
A: 14300 ng·h/mL

Q: What about the AUC(0-inf) [33] of the same compound?
A: 2780 ng·h/mL

Q: What about the Activity (Homo sapiens [34]) of the same compound?
A: 13%

Q: And the AUC(0-t) [35]?
A: 34300 ng·h/mL

Q: What about the Tmax [36] of the same compound?
A: 45 min

Q: And the Activity (Homo sapiens [37])?
A: 0%
